# Columns and labels:
# CYP1A1 gene expression = assay: Particle induced CYP1A1 gene expression in human epidermal keratinocytes (qRT-PCR); type: cell-based; details: for CYP1A1 Induction mean ± SE: 10 μM BDDI
# Description: (§1) Gene expression was induced by different model particles. […] The details are set out in Table 1:
# (§2) Gene expression was analyzed via qRT-PCR.
# POMC gene expression = assay: Particle induced POMC gene expression in human epidermal keratinocytes (qRT-PCR); type: cell-based
# Description: as §1, §2
# (§3) Ginger root CO2 extract has been dissolved in DMSO and diluted in medium. […] Gene expression was analyzed via qRT-PCR. […] Table 7 compiles the results for ginger root CO2 extract altered POMC and IL-6 gene expression
# (§4) Purple coneflower pressed juice has been dissolved directly in medium. […] Gene expression was analyzed via qRT-PCR. […] Table 8 compiles the results for purple coneflower pressed juice altered POMC and IL-6 gene expression
# (§5) Gene expression was analyzed via qRT-PCR. […] Table 9 compiles the results for purple coneflower pressed juice altered POMC and IL-6 gene expression
# IL-6 gene expression = assay: Particle induced IL-6 gene expression in human epidermal keratinocytes (qRT-PCR); type: cell-based
# Description: as §1, §2, §3, §4, §5
# MMP1 gene expression = assay: Particle induced MMP1 gene expression in human epidermal keratinocytes (qRT-PCR); type: cell-based
# Description: as §1, §2
# AhR = target: T1, AhR (Homo sapiens, UniProt P35869); details: stated as known; cited from earlier work
# T1 sequence (P35869 11-848): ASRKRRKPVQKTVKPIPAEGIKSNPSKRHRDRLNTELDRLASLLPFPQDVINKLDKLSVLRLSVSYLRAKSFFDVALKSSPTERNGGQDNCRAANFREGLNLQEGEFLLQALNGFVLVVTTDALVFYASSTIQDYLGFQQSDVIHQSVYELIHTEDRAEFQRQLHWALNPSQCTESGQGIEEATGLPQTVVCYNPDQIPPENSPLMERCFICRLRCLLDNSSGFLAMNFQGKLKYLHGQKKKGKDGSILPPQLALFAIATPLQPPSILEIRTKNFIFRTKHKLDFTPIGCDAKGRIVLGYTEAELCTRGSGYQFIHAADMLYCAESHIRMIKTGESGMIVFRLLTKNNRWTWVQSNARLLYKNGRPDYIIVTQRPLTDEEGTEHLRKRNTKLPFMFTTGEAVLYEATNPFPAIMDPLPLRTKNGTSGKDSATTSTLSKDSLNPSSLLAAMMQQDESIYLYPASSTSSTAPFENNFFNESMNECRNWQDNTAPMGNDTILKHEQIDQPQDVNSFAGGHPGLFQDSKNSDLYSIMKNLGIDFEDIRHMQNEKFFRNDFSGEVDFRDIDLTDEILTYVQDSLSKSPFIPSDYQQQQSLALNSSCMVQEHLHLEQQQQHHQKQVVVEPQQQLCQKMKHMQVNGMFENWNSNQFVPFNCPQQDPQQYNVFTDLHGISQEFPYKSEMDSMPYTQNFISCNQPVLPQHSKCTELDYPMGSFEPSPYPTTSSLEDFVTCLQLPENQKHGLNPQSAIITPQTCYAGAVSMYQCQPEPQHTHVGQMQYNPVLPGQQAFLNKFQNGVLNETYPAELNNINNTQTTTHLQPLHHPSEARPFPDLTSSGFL
# 5-lipoxygenase = target: T2, 5-lipoxygenase (Homo sapiens, UniProt P09917); details: described in WO 200 230385 A2 (Henkel); cited from earlier work
# T2 sequence (P09917 1-674): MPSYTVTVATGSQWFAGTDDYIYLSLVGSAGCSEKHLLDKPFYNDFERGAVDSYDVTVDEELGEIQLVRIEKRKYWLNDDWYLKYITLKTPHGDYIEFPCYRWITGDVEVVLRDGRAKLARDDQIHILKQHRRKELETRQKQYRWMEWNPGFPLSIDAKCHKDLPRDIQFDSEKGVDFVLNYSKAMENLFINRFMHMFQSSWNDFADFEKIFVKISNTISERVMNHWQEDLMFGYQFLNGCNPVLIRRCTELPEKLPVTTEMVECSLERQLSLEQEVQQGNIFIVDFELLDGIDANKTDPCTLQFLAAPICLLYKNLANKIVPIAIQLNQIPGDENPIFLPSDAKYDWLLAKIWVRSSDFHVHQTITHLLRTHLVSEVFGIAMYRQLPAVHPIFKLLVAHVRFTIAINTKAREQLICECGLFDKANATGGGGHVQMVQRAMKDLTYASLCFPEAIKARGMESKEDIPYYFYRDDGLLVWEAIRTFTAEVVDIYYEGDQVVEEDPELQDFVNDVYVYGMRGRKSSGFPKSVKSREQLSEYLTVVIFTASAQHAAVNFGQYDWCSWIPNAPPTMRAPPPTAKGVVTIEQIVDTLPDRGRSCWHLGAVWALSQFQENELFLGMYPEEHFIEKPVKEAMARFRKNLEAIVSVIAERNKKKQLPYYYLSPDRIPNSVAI
# cyclooxygenase-1 = cyclooxygenase-1 (Homo sapiens, UniProt P23219); details: described in WO 200 230385 A2 (Henkel); cited from earlier work
# Sequence of cyclooxygenase-1 (P23219 24-599, species assumed): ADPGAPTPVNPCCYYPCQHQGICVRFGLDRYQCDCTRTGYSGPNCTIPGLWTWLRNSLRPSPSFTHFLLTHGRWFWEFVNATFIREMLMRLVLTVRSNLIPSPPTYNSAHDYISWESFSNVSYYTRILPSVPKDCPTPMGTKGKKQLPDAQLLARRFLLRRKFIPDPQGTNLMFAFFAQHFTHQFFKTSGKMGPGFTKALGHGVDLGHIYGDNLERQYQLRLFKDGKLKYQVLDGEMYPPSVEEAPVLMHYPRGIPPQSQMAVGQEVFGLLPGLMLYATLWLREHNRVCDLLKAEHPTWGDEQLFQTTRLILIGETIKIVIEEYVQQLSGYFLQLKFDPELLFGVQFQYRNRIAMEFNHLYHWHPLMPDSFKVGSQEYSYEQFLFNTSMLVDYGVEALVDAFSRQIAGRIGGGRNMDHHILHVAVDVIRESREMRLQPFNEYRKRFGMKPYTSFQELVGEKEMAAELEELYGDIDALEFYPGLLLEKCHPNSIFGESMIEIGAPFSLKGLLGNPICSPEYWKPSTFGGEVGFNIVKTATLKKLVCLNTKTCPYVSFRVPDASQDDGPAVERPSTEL
Molecule,"CYP1A1 Induction mean ± SE (CYP1A1 gene expression; NHEK adult, 6 h, SRM1650 1.5 μg/cm2, untreated = 1, particles alone 2.90)","CYP1A1 Induction mean ± SE (CYP1A1 gene expression; NHEK adult, 6 h, SRM2975 1.5 μg/cm2, untreated = 1, particles alone 1.03)","CYP1A1 Induction mean ± SE (CYP1A1 gene expression; NHEK adult, 24 h, SRM2975 1.5 μg/cm2, untreated = 1, particles alone 4.90)",inhibition of particle induced Cyp1A1 gene expression (in words) (CYP1A1 gene expression; indoor as well as outdoor model particles),"CYP1A1 Induction mean ± SE (CYP1A1 gene expression; indoor particles Huber990 1.5 μg/cm2, 6 h, untreated = 1, particles alone 2.70)","CYP1A1 Induction mean ± SE (CYP1A1 gene expression; indoor particles Huber990 1.5 μg/cm2, 24 h, untreated = 1, particles alone 2.90)",inhibition of particle induced POMC gene expression (in words) (POMC gene expression),inhibition of particle induced IL-6 gene expression (in words) (IL-6 gene expression),inhibition of particle induced MMP1 gene expression (in words) (MMP1 gene expression),upregulation of the AhR by UVB radiation (in words) (AhR),inhibition of 5-lipoxygenase (in words) (5-lipoxygenase),inhibition of cyclooxygenase-1 activity (in words) (cyclooxygenase-1)
"E/Z-2-benzylindene-5,6-dimethoxy-3,3-dimethylindan-1-one [BDDI]",0.02 ± 0.00,0.20 ± 0.00,0.01 ± 0.00,capable to inhibit,0.05 ± 0.00,0.20 ± 0.00,capable to inhibit,capable to inhibit,capable to inhibit,prevent the upregulation,,
"C=C[C@](C)(O)CC[C@@H]1[C@@]2(C)CCCC(C)(C)[C@@H]2CC[C@@]1(C)O [sclareol, reference compound]",,,,,,,,,,,inhibition,inhibition
"CC1(C)CCC[C@]2(C)C3CC(=O)O[C@]3(C)CC[C@@H]12 (stereo partly drawn) [Sclareolide, (3aR,5aS,9aS,9bR)-decahydro-3a,6,6,9a-tetramethyl-naphtha[2,1-b]furan-2(1H)-one]",,,,,,,capable to inhibit,,,,inhibition,inhibition

# From patent US10780042B2, “Cosmetic compositions” (Symrise AG, priority 2015, dated 2020)
